Measurements as given in PubChem BioAssay AID1963434 (Molecular Pharmacology Branch, DTP, NCI, 2024).
Values joined by “and” are separate entries in the source; they are usually repeats but may differ in a detail not shown here. Equal values may be shown once.

Tested on: 755483-174-R-J1-PDC complex spheroid growth, percent test/control
Assay: Anticancer human tumor 755483-174-R-J1-PDC patient-derived rhabdomyosarcoma cell line growth inhibition [Asc]
Settings: for viability, T/C: stronger effect = lower value
Procedure: Multicellular complex tumor spheroid response to apoptosis pathway targeting inhibitors Alrizomadlin, Pelcitoclax, and Dasminapant in combination with a variety of drugs and investigational agents in selected tumor cell lines
The MDM2 inhibitor alrizomadlin, the Bcl-2/Bcl-xL inhibitor pelcitoclax, and the IAPs inhibitor dasminapant were evaluated both individually and in combination with standard of care and investigational anticancer small molecules within a complex spheroid model of solid tumors. . Complex spheroids include a stromal component modeled by human endothelial cells (HUVEC) and fibroblasts modeled by human mesenchymal stem cells (MSCs). The concentration ranges selected for each drug and investigational agent were based upon clinically achievable concentrations if the clinical Cmax of the agent was known.
Compounds. The drugs and investigational agents: alrizomadlin (APG-115; NSC831270), pelcitoclax (APG-1252; NSC835773), dasminapant (APG-1387;NSC834197), TAK-243 (NSC785004), copanlisib (NSC809693), olaparib (NSC753686), talazoparib (NSC767125), cobimetinib (NSC 768068), eltanexor (KPT-8602, NSC 794443), abemaciclib (NSC 768073), sotorasib (NSC818433), adagrasib (NSC 831453), MRTX-1133 (NSC 836407), Iadademestat (ORY1001, NSC 806812), and RMC-4630 (NSC839698), were obtained from the NCI Developmental Therapeutics Program Chemical Repository. The FDA-approved anticancer drug set is available from the Developmental Therapeutics Program at https://dtp.cancer.gov/organization/dscb/obtaining/available plates.htm. […] The stock solutions were prepared in dimethyl sulfoxide (DMSO, Sigma-Aldrich, St. Louis, MO, cat. D2650) at 800-fold the tested concentration and stored at -70 degrees C prior to their use. All drugs and investigational agents were tested over a range starting from a high concentration at or near the clinical Cmax and decreasing in half-log increments. If the clinical Cmax for an agent had not been determined, the highest concentration tested was 10 microM.
The patient-derived cancer (PDC) cell lines include five colon adenocarcinomas: 186277-243-T-J2-PDC, 616215-338-R-J1-PDC, 439559-082-T-J2-PDC, 463943-066-T-J2-PDC, and 519858-162-T-J1-PDC; three pancreatic carcinomas: 323965-272-R-J2-PDC, 521955-158-R6-J3-PDC, and 521955-158-R2-J5-PDC; two uterine sarcomas: 327498-152-R-J2-PDC and 993429-296-R-J1-PDC; two rhabdomyosarcomas: 755483-174-R-J1-PDC and 772245-204-R-J1-PDC; two soft tissue sarcomas: 126254-015-R-J1-PDC and 494315-158-R-J1-PDC; two malignant fibrous histiocytomas: 317291-083-R-J1-PDC and 596521-263-R-J1-PDC; two breast carcinomas: 171881-019-R-J1-PDC and 885512-296-R-J2-PDC; and one ovarian carcinoma: 6556581-035-R-J-PDC were obtained from the NCI PDMR, (https://pdmr.cancer.gov). The established cell lines HSSY-2 synovial sarcoma (RRID:CVCL 8719), SYO-1 synovial sarcoma (RRID:CVCL_7146), MPNST malignant peripheral neural sheath tumor were obtained from the Sloan Kettering Institute. The following established cell lines were purchased from the American Type Culture Collection (ATCC, Manassas, VA), Sor the received from the NCI repository:, PANC-1 pancreatic carcinoma (CRL-1469, RRID:CVCL_0480), OVCAR-5 ovarian carcinoma (RRID:CVCL_1628), OVCAR-8 ovarian carcinoma (RRID:CVCL_1629), , MCF-7 breast carcinoma (CRL-12584, RRID:CVCL_0031), MDA-MB-231 breast carcinoma (CRL-12532, RRID:CVCL_0062), NCI-H1876 small cell lung carcinoma (CRL-5902, RRID:CVCL_1503), NCI-H510A small cell lung carcinoma (HTB-184, RRID:CVCL_1565), NCI-H1417 (CRL-5869, RRID:CVCL_1469), and NCI-H196 small cell lung carcinoma (CRL-5823, RRID:CVCL_1509). Dr. Peter Houghton (Greehey Children's Cancer Research Institute, University of Texas Health Science Center, San Antonio, TX) provided Rh-18 rhabdomyosarcoma (RRID:CVCL_1659). Pooled donor human umbilical vein endothelial cells (HUVEC, Lonza, cat. CC-2519) and human mesenchymal stem cells (hMSC, Lonza, cat. PT-2501) were purchased from Lonza (Walkersville, MD).
Cell Culture. […]

[1] = curve of first compound, second compound 0.03 µM
[2] = curve of first compound, second compound 0.0949 µM
[3] = curve of first compound, second compound 0.3 µM
[4] = curve of first compound, second compound 0.949 µM
[5] = curve of first compound, second compound 3 µM
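Also: spheroids exposed to compounds for seven days before readout.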

## CCN1CCN(Cc2ccc(Nc3ncc(F)c(-c4cc(F)c5nc(C)n(C(C)C)c5c4)n3)nc2)CC1
Compound 0.00316 µM
  viability, T/C: 112% and 99% and 77.5%
Compound 0.01 µM
  viability, T/C: 85.6% and 83.7% and 100%
Compound 0.0316 µM
  viability, T/C: 119% and 93.6% and 74.1%
Compound 0.1 µM
  viability, T/C: 120% and 83.7% and 118%
Compound 0.316 µM
  viability, T/C: 115% and 99.3% and 99.2%
Compound 1 µM
  viability, T/C: 113% and 132% and 99%
Curve of compound
  IC50: > 1 µM

## C=CC(=O)N1CCN(c2nc(=O)n(-c3c(C)ccnc3C(C)C)c3nc(-c4c(O)cccc4F)c(F)cc23)C(C)C1 (stereo not drawn)
Compound 0.0316 µM
  viability, T/C: 99.7% and 81.3% and 102%
Compound 0.1 µM
  viability, T/C: 98.4% and 72.6% and 109%
Compound 0.316 µM
  viability, T/C: 115% and 63% and 100%
Compound 1 µM
  viability, T/C: 94.8% and 72.7% and 121%
Compound 3.16 µM
  viability, T/C: 117% and 78.5% and 88.8%
Compound 10 µM
  viability, T/C: 74.8% and 69.6% and 85.6%
Curve of compound
  IC50: > 10 µM

## C#Cc1c(F)ccc2cc(O)cc(-c3ncc4c(N5CC6CCC(C5)N6)nc(OCC56CCCN5CC(F)C6)nc4c3F)c12 (stereo not drawn) + CCN1C(C(=O)NC23CCC(C(=O)O)(CC2)CC3)C(c2cccc(Cl)c2F)C2(C(=O)Nc3cc(Cl)ccc32)C12CCCCC2
[1]
  IC50: 8.79 µM
[2]
  IC50: 9.37 µM
[3]
  IC50: 6.91 µM
[4]
  IC50: 8.9 µM
[5]
  IC50: 7.2 µM
Second compound 0.03 µM, first compound 0.0316 µM
  viability, T/C: 90.5%
Second compound 0.03 µM, first compound 0.1 µM
  viability, T/C: 96.1%
Second compound 0.03 µM, first compound 0.316 µM
  viability, T/C: 95.5%
Second compound 0.03 µM, first compound 1 µM
  viability, T/C: 120%
Second compound 0.03 µM, first compound 3.16 µM
  viability, T/C: 71.8%
Second compound 0.03 µM, first compound 10 µM
  viability, T/C: 47.2%
Second compound 0.0949 µM, first compound 0.0316 µM
  viability, T/C: 135%
Second compound 0.0949 µM, first compound 0.1 µM
  viability, T/C: 110%
Second compound 0.0949 µM, first compound 0.316 µM
  viability, T/C: 128%
Second compound 0.0949 µM, first compound 1 µM
  viability, T/C: 121%
Second compound 0.0949 µM, first compound 3.16 µM
  viability, T/C: 59.8%
Second compound 0.0949 µM, first compound 10 µM
  viability, T/C: 49.4%
Second compound 0.3 µM, first compound 0.0316 µM
  viability, T/C: 79.4%
Second compound 0.3 µM, first compound 0.1 µM
  viability, T/C: 88.4%
Second compound 0.3 µM, first compound 0.316 µM
  viability, T/C: 143%
Second compound 0.3 µM, first compound 1 µM
  viability, T/C: 89.1%
Second compound 0.3 µM, first compound 3.16 µM
  viability, T/C: 91.7%
Second compound 0.3 µM, first compound 10 µM
  viability, T/C: 30.5%
Second compound 0.949 µM, first compound 0.0316 µM
  viability, T/C: 78.9%
Second compound 0.949 µM, first compound 0.1 µM
  viability, T/C: 79.5%
Second compound 0.949 µM, first compound 0.316 µM
  viability, T/C: 117%
Second compound 0.949 µM, first compound 1 µM
  viability, T/C: 118%
Second compound 0.949 µM, first compound 3.16 µM
  viability, T/C: 88.2%
Second compound 0.949 µM, first compound 10 µM
  viability, T/C: 45.7%
Second compound 3 µM, first compound 0.0316 µM
  viability, T/C: 111%
Second compound 3 µM, first compound 0.1 µM
  viability, T/C: 106%
Second compound 3 µM, first compound 0.316 µM
  viability, T/C: 116%
Second compound 3 µM, first compound 1 µM
  viability, T/C: 114%
Second compound 3 µM, first compound 3.16 µM
  viability, T/C: 80.6%
Second compound 3 µM, first compound 10 µM
  viability, T/C: 37.8%

## C#Cc1c(F)ccc2cc(O)cc(-c3ncc4c(N5CC6CCC(C5)N6)nc(OCC56CCCN5CC(F)C6)nc4c3F)c12 (stereo not drawn)
Compound 0.0316 µM
  viability, T/C: 97.7% and 125% and 101%
Compound 0.1 µM
  viability, T/C: 114% and 91.6% and 119%
Compound 0.316 µM
  viability, T/C: 92.6% and 113% and 90.3%
Compound 1 µM
  viability, T/C: 117% and 100% and 127%
Compound 3.16 µM
  viability, T/C: 85.7% and 76.6% and 92.3%
Compound 10 µM
  viability, T/C: 31.7% and 34.9% and 58.8%
Curve of compound
  IC50: 6.77 µM and 6.63 µM and > 10 µM

## Cc1nc(N2CCC3(CC2)COC(C)C3N)c(CO)nc1Sc1ccnc(N)c1Cl (stereo not drawn) + CCN1C(C(=O)NC23CCC(C(=O)O)(CC2)CC3)C(c2cccc(Cl)c2F)C2(C(=O)Nc3cc(Cl)ccc32)C12CCCCC2
[1]
  IC50: 0.442 µM
[2]
  IC50: 0.371 µM
[3]
  IC50: 0.387 µM
[4]
  IC50: 0.232 µM
[5]
  IC50: 0.315 µM
Second compound 0.03 µM, first compound 0.00949 µM
  viability, T/C: 111%
Second compound 0.03 µM, first compound 0.03 µM
  viability, T/C: 93.4%
Second compound 0.03 µM, first compound 0.0949 µM
  viability, T/C: 80.7%
Second compound 0.03 µM, first compound 0.3 µM
  viability, T/C: 58.6%
Second compound 0.03 µM, first compound 0.949 µM
  viability, T/C: 33.4%
Second compound 0.03 µM, first compound 3 µM
  viability, T/C: 19.6%
Second compound 0.0949 µM, first compound 0.00949 µM
  viability, T/C: 113%
Second compound 0.0949 µM, first compound 0.03 µM
  viability, T/C: 106%
Second compound 0.0949 µM, first compound 0.0949 µM
  viability, T/C: 106%
Second compound 0.0949 µM, first compound 0.3 µM
  viability, T/C: 52.9%
Second compound 0.0949 µM, first compound 0.949 µM
  viability, T/C: 39.2%
Second compound 0.0949 µM, first compound 3 µM
  viability, T/C: 21.1%
Second compound 0.3 µM, first compound 0.00949 µM
  viability, T/C: 89.5%
Second compound 0.3 µM, first compound 0.03 µM
  viability, T/C: 87.6%
Second compound 0.3 µM, first compound 0.0949 µM
  viability, T/C: 62.1%
Second compound 0.3 µM, first compound 0.3 µM
  viability, T/C: 51.6%
Second compound 0.3 µM, first compound 0.949 µM
  viability, T/C: 42.5%
Second compound 0.3 µM, first compound 3 µM
  viability, T/C: 18.5%
Second compound 0.949 µM, first compound 0.00949 µM
  viability, T/C: 105%
Second compound 0.949 µM, first compound 0.03 µM
  viability, T/C: 82.9%
Second compound 0.949 µM, first compound 0.0949 µM
  viability, T/C: 84.1%
Second compound 0.949 µM, first compound 0.3 µM
  viability, T/C: 40.1%
Second compound 0.949 µM, first compound 0.949 µM
  viability, T/C: 24.9%
Second compound 0.949 µM, first compound 3 µM
  viability, T/C: 27.1%
Second compound 3 µM, first compound 0.00949 µM
  viability, T/C: 111%
Second compound 3 µM, first compound 0.03 µM
  viability, T/C: 82.9%
Second compound 3 µM, first compound 0.0949 µM
  viability, T/C: 71.9%
Second compound 3 µM, first compound 0.3 µM
  viability, T/C: 50.1%
Second compound 3 µM, first compound 0.949 µM
  viability, T/C: 34.3%
Second compound 3 µM, first compound 3 µM
  viability, T/C: 21.1%

## C=C(F)C(=O)N1CCN(c2nc(OCC3CCCN3C)nc3c2CCN(c2cccc4cccc(Cl)c24)C3)CC1CC#N (stereo not drawn)
Compound 0.0316 µM
  viability, T/C: 95.7% and 76.6% and 114%
Compound 0.1 µM
  viability, T/C: 91% and 57% and 109%
Compound 0.316 µM
  viability, T/C: 95% and 99.3% and 78.9%
Compound 1 µM
  viability, T/C: 80.1% and 74.6% and 88.8%
Compound 3.16 µM
  viability, T/C: 21.4% and 23.7% and 19.3%
Compound 10 µM
  viability, T/C: 0.14% and 0.16% and 0.18%
Curve of compound
  IC50: 1.81 µM and 1.76 µM and 1.88 µM
